HELM strings list units from the 5' end as sugar, base in round brackets, then linkage (d deoxyribose, r ribose, m 2'-O-methyl, p phosphodiester). Strings are as the collection lists them; they lack the last nucleoside at the 3' end of the tested compound. [moe] = 2'-O-(2-methoxyethyl) (MOE); [sp] = phosphorothioate linkage; [m5C] = 5-methylcytosine
Target: ATXN3
Assay: mouse, dose not given
Details: ASO

| Substance | 3 h FOB score [score 0-7] |
| --- | --- |
| RNA1{[moe]([m5C])[sp].[moe](T)p.[moe](G)p.[moe](G)p.[moe](T)[sp].d([m5C])[sp].d(A)[sp].d(G)[sp].d(T)[sp].d(T)[sp].d(T)[sp].d([m5C])[sp].d([m5C])[sp].d(T)[sp].d(A)[sp].[moe](A)p.[moe](T)p.[moe](T)[sp].[moe](T)}$$$$ (last 3' nucleoside missing) | 0 |
| RNA1{[moe]([m5C])[sp].[moe]([m5C])p.[moe](A)p.[moe](A)p.[moe](T)p.d(A)[sp].d(T)[sp].d(T)[sp].d(T)[sp].d(A)[sp].d(T)[sp].d(A)[sp].d(G)[sp].d(G)[sp].d(T)[sp].[moe](G)p.[moe]([m5C])p.[moe](T)[sp].[moe](G)}$$$$ (last 3' nucleoside missing) | 1.75 |
| RNA1{[moe](G)[sp].[moe]([m5C])[sp].[moe](A)p.[moe]([m5C])p.[moe]([m5C])[sp].d(A)[sp].d(T)[sp].d(A)[sp].d(T)[sp].d(A)[sp].d(T)[sp].d(A)[sp].d(T)[sp].d([m5C])[sp].d(T)[sp].[moe]([m5C])p.[moe](A)p.[moe](G)[sp].[moe](A)}$$$$ (last 3' nucleoside missing) | 1 |
| RNA1{[moe](A)[sp].[moe](G)p.[moe](T)p.[moe](G)p.[moe]([m5C])[sp].d(T)[sp].d(A)[sp].d(T)[sp].d(A)[sp].d(A)[sp].d(T)[sp].d(T)[sp].d([m5C])[sp].d(T)[sp].d(T)[sp].[moe](G)p.[moe]([m5C])p.[moe](T)[sp].[moe](T)}$$$$ (last 3' nucleoside missing) | 0.25 |
| RNA1{[moe](T)[sp].[moe](G)p.[moe]([m5C])p.[moe](T)p.[moe](T)[sp].d(T)[sp].d(T)[sp].d([m5C])[sp].d(A)[sp].d(T)[sp].d(A)[sp].d([m5C])[sp].d([m5C])[sp].d(A)[sp].d(G)[sp].[moe](G)p.[moe](T)p.[moe]([m5C])[sp].[moe](T)}$$$$ (last 3' nucleoside missing) | 0.25 |
| RNA1{[moe](A)[sp].[moe](G)p.[moe](T)p.[moe](G)p.[moe]([m5C])[sp].d(T)[sp].d(U)[sp].d(T)[sp].d(T)[sp].d([m5C])[sp].d(A)[sp].d(T)[sp].d(A)[sp].d([m5C])[sp].d([m5C])[sp].[moe](A)p.[moe](G)p.[moe](G)[sp].[moe](T)}$$$$ (last 3' nucleoside missing) | 0.75 |
| RNA1{[moe](T)[sp].[moe](G)p.[moe](T)p.[moe](T)p.[moe](A)p.d(A)[sp].d(T)[sp].d(A)[sp].d([m5C])[sp].d(T)[sp].d(T)[sp].d(T)[sp].d(T)[sp].d(T)[sp].d([m5C])[sp].[moe]([m5C])p.[moe](A)p.[moe](G)[sp].[moe]([m5C])}$$$$ (last 3' nucleoside missing) | 1 |
| RNA1{[moe](G)[sp].[moe]([m5C])p.[moe](T)p.[moe]([m5C])p.[moe](A)p.[moe](T)p.d(T)[sp].d(T)[sp].d(A)[sp].d(T)[sp].d(T)[sp].d([m5C])[sp].d(T)[sp].d([m5C])[sp].d(A)[sp].d(A)[sp].[moe](G)p.[moe](T)[sp].[moe](A)}$$$$ (last 3' nucleoside missing) | 0 |
| RNA1{[moe](T)[sp].[moe](G)p.[moe](T)p.[moe](T)p.[moe](A)[sp].d(A)[sp].d(T)[sp].d(A)[sp].d([m5C])[sp].d(T)[sp].d(T)[sp].d(T)[sp].d(T)[sp].d(T)[sp].d([m5C])[sp].[moe]([m5C])p.[moe](A)p.[moe](G)[sp].[moe]([m5C])}$$$$ (last 3' nucleoside missing) | 0 |
| RNA1{[moe](G)[sp].[moe]([m5C])p.[moe](A)p.[moe](T)p.[moe](A)p.[moe](T)p.d(T)[sp].d(G)[sp].d(G)[sp].d(T)[sp].d(T)[sp].d(T)[sp].d(T)[sp].d([m5C])[sp].d(T)[sp].d([m5C])[sp].[moe](A)p.[moe](T)[sp].[moe](T)}$$$$ (last 3' nucleoside missing) | 3 |
| RNA1{[moe](G)[sp].[moe]([m5C])p.[moe](A)p.[moe]([m5C])p.[moe](A)p.[moe](T)p.d(T)[sp].d(T)[sp].d(T)[sp].d(T)[sp].d(T)[sp].d(A)[sp].d(T)[sp].d(A)[sp].d(G)[sp].d(A)[sp].[moe](G)p.[moe](T)[sp].[moe](T)}$$$$ (last 3' nucleoside missing) | 1 |
| RNA1{[moe](A)[sp].[moe](T)p.[moe](T)p.[moe]([m5C])p.[moe](T)[sp].d(T)[sp].d(G)[sp].d([m5C])[sp].d(T)[sp].d(T)[sp].d([m5C])[sp].d(A)[sp].d(A)[sp].d([m5C])[sp].d([m5C])[sp].[moe](A)p.[moe](T)p.[moe]([m5C])[sp].[moe](A)}$$$$ (last 3' nucleoside missing) | 0.375 |
| RNA1{[moe](T)[sp].[moe](G)p.[moe](G)p.[moe](A)p.[moe](A)[sp].d([m5C])[sp].d(T)[sp].d(A)[sp].d([m5C])[sp].d([m5C])[sp].d(T)[sp].d(T)[sp].d(G)[sp].d([m5C])[sp].d(A)[sp].[moe](T)p.[moe](A)p.[moe]([m5C])[sp].[moe](T)}$$$$ (last 3' nucleoside missing) | 5.38 |
| RNA1{[moe](A)[sp].[moe](G)p.[moe]([m5C])p.[moe]([m5C])p.[moe](A)[sp].d(A)[sp].d(T)[sp].d(A)[sp].d(T)[sp].d(T)[sp].d(T)[sp].d(A)[sp].d(T)[sp].d(A)[sp].d(G)[sp].[moe](G)p.[moe](T)p.[moe](G)[sp].[moe]([m5C])}$$$$ (last 3' nucleoside missing) | 1 |
| RNA1{[moe](G)[sp].[moe]([m5C])p.[moe](A)p.[moe](T)p.[moe](A)[sp].d(T)[sp].d(T)[sp].d(G)[sp].d(G)[sp].d(T)[sp].d(T)[sp].d(T)[sp].d(T)[sp].d([m5C])[sp].[moe](T)p.[moe]([m5C])p.[moe](A)[sp].[moe](T)}$$$$ (last 3' nucleoside missing) | 5.5 |
| RNA1{[moe](A)[sp].[moe](G)p.[moe](T)p.[moe](G)p.[moe]([m5C])p.[moe](T)p.d(T)[sp].d(T)[sp].d(T)[sp].d([m5C])[sp].d(A)[sp].d(T)[sp].d(A)[sp].d([m5C])[sp].d([m5C])[sp].d(A)[sp].[moe](G)p.[moe](G)[sp].[moe](T)}$$$$ (last 3' nucleoside missing) | 1 |
| RNA1{[moe](G)[sp].[moe]([m5C])p.[moe](A)p.[moe](T)p.[moe](A)[sp].d(T)[sp].d(T)[sp].d(G)[sp].d(G)[sp].d(T)[sp].d(T)[sp].d(T)[sp].d(T)[sp].d([m5C])[sp].d(T)[sp].[moe]([m5C])p.[moe](A)p.[moe](T)p.[moe](T)}$$$$ (last 3' nucleoside missing) | 3 |
| RNA1{[moe](G)[sp].[moe]([m5C])[sp].[moe](T)p.[moe]([m5C])p.[moe](A)[sp].d(T)[sp].d(T)[sp].d(T)[sp].d(A)[sp].d(T)[sp].d(T)[sp].d([m5C])[sp].d(T)[sp].d([m5C])[sp].d(A)[sp].[moe](A)p.[moe](G)p.[moe](T)[sp].[moe](A)}$$$$ (last 3' nucleoside missing) | 1 |
| RNA1{[moe](A)[sp].[moe](T)p.[moe](G)p.[moe](T)p.[moe](T)[sp].d([m5C])[sp].d(A)[sp].d(T)[sp].d(A)[sp].d(T)[sp].d([m5C])[sp].d([m5C])[sp].d(T)[sp].d(T)[sp].d(T)[sp].[moe](A)p.[moe](A)p.[moe]([m5C])[sp].[moe]([m5C])}$$$$ (last 3' nucleoside missing) | 0 |
| RNA1{[moe](T)[sp].[moe](G)p.[moe](G)p.[moe](T)p.[moe](T)[sp].d(T)[sp].d(T)[sp].d([m5C])[sp].d(T)[sp].d([m5C])[sp].d(A)[sp].d(T)[sp].d(T)[sp].d(T)[sp].d(T)[sp].[moe](T)p.[moe](A)p.[moe](T)[sp].[moe](A)}$$$$ (last 3' nucleoside missing) | 0 |
| RNA1{[moe](T)[sp].[moe](A)p.[moe](A)p.[moe](T)p.[moe](T)[sp].d([m5C])[sp].d(T)[sp].d(T)[sp].d(G)[sp].d([m5C])[sp].d(T)[sp].d(T)[sp].d([m5C])[sp].d(A)[sp].d(A)[sp].[moe]([m5C])p.[moe]([m5C])p.[moe](A)[sp].[moe](T)}$$$$ (last 3' nucleoside missing) | 1.38 |
| RNA1{[moe](G)[sp].[moe]([m5C])p.[moe]([m5C])p.[moe](A)p.[moe](T)p.d(T)[sp].d(A)[sp].d(A)[sp].d(T)[sp].d([m5C])[sp].d(T)[sp].d(A)[sp].d(T)[sp].d(A)[sp].d([m5C])[sp].[moe](T)p.[moe](G)p.[moe](A)[sp].[moe](A)}$$$$ (last 3' nucleoside missing) | 1 |
| RNA1{[moe](G)[sp].[moe](T)p.[moe](G)p.[moe](A)p.[moe]([m5C])[sp].d(T)[sp].d(A)[sp].d(A)[sp].d([m5C])[sp].d(A)[sp].d(G)[sp].d(T)[sp].d(A)[sp].d(T)[sp].d(G)[sp].[moe](T)p.[moe](T)p.[moe](T)[sp].[moe](T)}$$$$ (last 3' nucleoside missing) | 2.25 |
| RNA1{[moe](G)[sp].[moe]([m5C])p.[moe](A)p.[moe](T)p.[moe](A)p.d(T)[sp].d(T)[sp].d(G)[sp].d(G)[sp].d(T)[sp].d(T)[sp].d(T)[sp].d(T)[sp].d([m5C])[sp].d(T)[sp].[moe]([m5C])p.[moe](A)p.[moe](T)[sp].[moe](T)}$$$$ (last 3' nucleoside missing) | 2.5 |
| RNA1{[moe]([m5C])[sp].[moe]([m5C])p.[moe]([m5C])p.[moe](A)p.[moe](A)[sp].d(T)[sp].d(A)[sp].d(A)[sp].d(T)[sp].d([m5C])[sp].d(T)[sp].d(G)[sp].d(A)[sp].d([m5C])[sp].d(A)[sp].[moe](T)p.[moe]([m5C])p.[moe]([m5C])[sp].[moe](T)}$$$$ (last 3' nucleoside missing) | 1.5 |
| RNA1{[moe]([m5C])[sp].[moe](A)p.[moe]([m5C])p.[moe]([m5C])p.[moe](A)[sp].d(T)[sp].d([m5C])[sp].d(T)[sp].d(T)[sp].d(T)[sp].d(G)[sp].d(A)[sp].d([m5C])[sp].d(A)[sp].d(A)[sp].[moe](G)p.[moe]([m5C])p.[moe](T)[sp].[moe](A)}$$$$ (last 3' nucleoside missing) | 1.25 |

From the OligoGym collection
